Experimental data published in PubChem BioAssay AID248 (DTP/NCI, 2004).
Toxic doses and inconclusive results are not listed. Rule as the data show it: active = T/C of 150% or more; inactive = T/C below 125%.

Test system: L1210 leukemia ip in BDF1 mice, survival T/C
Assay: NCI In Vivo Anticancer Drug Screen. Data for tumor model L1210 Leukemia (intraperitoneal) in B6D2F1 (BDF1) mice
Settings: endpoint: mean survival time, higher = longer survival
How it was run: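 Tumor cells were implanted, animals were treated, and survival was followed. The result divides the treated measurement by the vehicle-control measurement.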

Measured: T/C

CCCCNC(C)(C)C(SSC(c1cccs1)C(C)(C)NCCCC)c1cccs1 (configuration not stated)
inactive: dose: 25.0 mg/kg/injection, schedule: Q01DX009 (ip), vehicle: saline sonified 100 % of control | dose: 50.0 mg/kg/injection, schedule: Q01DX009 (ip), vehicle: saline sonified 100 % of control | dose: 100.0 mg/kg/injection, schedule: Q01DX009 (ip), vehicle: saline sonified 96 % of control | dose: 100.0 mg/kg/injection, schedule: Q04DX003 (ip), vehicle: saline sonified 90 % of control

COc1ccccc1NC(=O)CC(C)=O
inactive: dose: 50.0 mg/kg/injection, schedule: Q01DX001 (ip), vehicle: Klucel (hydroxypropylcellulose) (HPC) 100 % of control | dose: 100.0 mg/kg/injection, schedule: Q01DX001 (ip), vehicle: Klucel (hydroxypropylcellulose) (HPC) 100 % of control | dose: 100.0 mg/kg/injection, schedule: Q01DX009 (ip), vehicle: saline with Tween-80 103 % of control | dose: 200.0 mg/kg/injection, schedule: Q01DX001 (ip), vehicle: Klucel (hydroxypropylcellulose) (HPC) 106 % of control | dose: 200.0 mg/kg/injection, schedule: Q01DX009 (ip), vehicle: saline with Tween-80 95 % of control | dose: 400.0 mg/kg/injection, schedule: Q01DX009 (ip), vehicle: saline with Tween-80 97 % of control

CC(C)(C)c1ccc(CN2CCN(C(c3ccccc3)c3ccc(Cl)cc3)CC2)cc1 (configuration not stated)
inactive: dose: 12.5 mg/kg/injection, schedule: Q01DX009 (ip), vehicle: Klucel (hydroxypropylcellulose) (HPC) 98 % of control | dose: 25.0 mg/kg/injection, schedule: Q01DX009 (ip), vehicle: Klucel (hydroxypropylcellulose) (HPC) 91 % of control | dose: 25.0 mg/kg/injection, schedule: Q04DX003 (ip), vehicle: Klucel (hydroxypropylcellulose) (HPC) 93 % of control | dose: 50.0 mg/kg/injection, schedule: Q01DX009 (ip), vehicle: Klucel (hydroxypropylcellulose) (HPC) 91 % of control | dose: 50.0 mg/kg/injection, schedule: Q04DX003 (ip), vehicle: Klucel (hydroxypropylcellulose) (HPC) 93 % of control | dose: 100.0 mg/kg/injection, schedule: Q04DX003 (ip), vehicle: Klucel (hydroxypropylcellulose) (HPC) 96 % of control | dose: 200.0 mg/kg/injection, schedule: Q04DX003 (ip), vehicle: Klucel (hydroxypropylcellulose) (HPC) 91 % of control
